The source of these data is ChEMBL document CHEMBL1938378, “Synthesis and evaluation of tetrahedral intermediate mimic inhibitors of 3-deoxy-d-manno-octulosonate 8-phosphate synthase” (Bioorg Med Chem Lett, 2012).

Molecules are shown by their SMILES.

Test [1] addresses 2-dehydro-3-deoxyphosphooctonate aldolase (Neisseria meningitidis serogroup B (strain MC58), UniProt Q9JZ55). Put plainly: Competitive inhibition of Neisseria meningitidis serotype B strain MC58 ATCC BAA355 KDO8P synthase expressed in Escherichia coli BL21 (DE3) cells using PEP as substrate after 10 to 15 mins by Michaelis-Menten equation.
Test [2] is described as follows: Competitive inhibition of Acidithiobacillus ferrooxidans KDO8P synthase using PEP as substrate after 10 to 15 mins by Michaelis-Menten equation.
Test [3] in a line: Inhibition of Helicobacter pylori KDO8P.
Test [4] can be described thus: Inhibition of Escherichia coli KDO8P.

The term Ki denotes a measure of affinity in units of concentration, obtained from inhibition or displacement. A lower Ki goes with tighter binding. The IC50 is the concentration at which inhibition is half-maximal. A low value points to greater potency in that assay.

2-dehydro-3-deoxyphosphooctonate aldolase, sequence (Q9JZ55 whole entry): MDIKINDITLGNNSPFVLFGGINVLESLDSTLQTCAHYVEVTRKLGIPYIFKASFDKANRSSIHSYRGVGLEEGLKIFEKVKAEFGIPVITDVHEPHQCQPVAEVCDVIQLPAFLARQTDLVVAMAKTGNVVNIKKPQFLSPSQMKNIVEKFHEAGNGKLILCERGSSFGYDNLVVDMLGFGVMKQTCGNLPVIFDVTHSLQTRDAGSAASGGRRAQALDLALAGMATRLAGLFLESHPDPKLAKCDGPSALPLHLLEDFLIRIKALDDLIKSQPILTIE

Take `C[C@H](OP(=O)(O)O)C(=O)O`: the Ki in test [1] is 1200 µM; in test [2], 1000 µM.
The matching figures for `O=C(O)C(CCCCCCOP(=O)(O)O)OP(=O)(O)O` (centres undefined): 7.9 µM and 20 µM.
Regarding `O=C(O)CN(C[C@@H](O)[C@@H](O)[C@H](O)[C@H](O)COP(=O)(O)O)CP(=O)(O)O`, the midpoint of inhibition in test [3], the IC50, lay at 132 µM. Also, affinity in test [4] was put at a Ki of 0.37 µM.
Take `C[C@@H](OP(=O)(O)O)C(=O)O`: the Ki was found to be 870 µM in test [1] and 390 µM in test [2].
The matching figures for `O=C(O)C(CCCCCCO)OP(=O)(O)O` (centres undefined): 1000 µM and 540 µM.
The matching figures for `O=C(O)C(O)CCCCCCOP(=O)(O)O` (centres undefined): 270 µM and 190 µM.
On the same counts, the results for `O=C(O)CNCP(=O)(O)O` [GLYPHOSATE] are 260 µM and 330 µM.
